“Also recorded” adds a separate entry of the source.
Legend:
[1] = test system: inflammation-related CRM1 cargo proteins; assay: Immunofluorescence of nuclear localization of CRM1 cargos in HeLa and THP-1 cells; format: cell-based, human; conditions: 1-10 μM Compound 1 + 20 ng/mL TNFα, 4-24 h
Protocol: HeLa and THP-1 (human acute monocytic leukemia) cells were treated with inflammation inducing factor, TNFα, alone or in combination with 1-10 μM of Compound 1 for 4-24 h, and then were analyzed by immunofluorescence (IF) for the nuclear localization of inflammation-related CRM1 cargo proteins: IκB, Nrf2, HMGB1, FoxP3, FOXO1a, RxRα, PPARγ and NFκB (p65 subunit).
For the detection of IkB, Nrf2, RxRα and PPARγ localization, cells were pre-incubated with 10 μM Compound 1 for 30 minutes, followed by incubation with 20 ng/mL TNFα for 4 hrs in serum free media. […] IκB was detected by the primary rabbit monoclonal (E130) antibody from Abcam (ab32518); Nrf2 was detected by the primary rabbit polyclonal antibody from Santa Cruz (sc722); RxR alpha was detected by the primary rabbit polyclonal antibody from Santa Cruz (sc553); PPAR gamma was detected by the primary rabbit monoclonal […] antibody from Cell Signaling (#2443); Foxo1A was detected by the primary rabbit monoclonal [C29H4] antibody from Cell Signaling (#2880); HMGB1 was detected by the primary rabbit polyoclonal antibody from Abcam (ab18256); FoxP3 was detected by the primary rabbit polyclonal antibody from Abcam (ab10563); NFκB-p65 was detected by the primary rabbit monoclonal [C22B4] antibody from Cell Signaling (#4764). […]

COX-2 = COX-2 protein expression in HeLa cells (immunoblot); format: cell-based; conditions: 1 μM Compound 1 + 20 ng/ml TNFα, 24 hours
Protocol: HeLa cells were plated in a 6-well culture dish (5×10^5 cells/well) with EMEM medium (Lonza) supplemented with 10% heat-inactivated fetal bovine serum (Invitrogen). Two of the wells of the plate were pre-treated with 1 μM of Compound 1 for 30 minutes, at which time one of the wells was exposed to 20 ng/ml TNFα (Preprotech) for 24 hours. The other wells were treated with either 20 ng/ml TNFα or nothing for 24 hours. Following the treatment, whole-cell lysates were generated from the cells by lysis with RIPA buffer supplemented with protease and phosphatase inhibitors (Roche). Immunoblot detection of COX-2 protein was performed using an anti-COX-2 antibody (Cayman). Signal intensity for the COX-2 protein was normalized to that of beta-actin (Santa Cruz) for each sample and plotted graphically as arbitrary intensity units.

PMA-induced psoriasis = PMA-induced psoriasis in female BALB/c mice; format: in vivo; conditions: 10 μM topical, daily
Protocol: Twenty-four (24) female BALB/c mice, aged 6 to 8 weeks with a body weight between 22 and 30 g were used. The mice were randomized into […]. The grouping of animals was as follows: Group I (Naïve; ethanol), Group II (PMA; ethanol), Group III (PMA; […] Twenty (20) μL of PMA (4 μg/20 μL of acetone) was applied topically on the upper surface of pinna of ear of all animals in Group II to Group IV. PMA was applied daily on left ear and on alternate days (M-W-F) on right ear from Day 1 to Day 9. Thirty (30) minutes after application of PMA, vehicle or standard compound (betamethasone) or Compound 2 was applied topically to the ears of animals from different groups. […] Animals were observed daily for a period of 12 days for any treatment related symptoms. Basal ear thickness was recorded in all animals (before application of PMA) using digital screw gauge at time T0 (Day 1). […] Commercially available 100% DMSO (LR Grade) and ethanol (LR Grade) were used to prepare the formulations. PMA was prepared by dissolving 10 mg of PMA in 50.0 mL of acetone. Compound 2 was prepared by dissolving 1.47 mg of Compound 2 in 300 μL of 100% DMSO.

A549 xenograft tumors = assay: A549 lung carcinoma xenograft in SCID mice; format: in vivo
Protocol: The A549 cell line was derived from explant culture of alveolar carcinoma tissue from a person. The cells were grown in Ham's F12-K tissue culture media with 10% fetal calf serum and 1% penicillin/streptomycin. Cells were routinely trypsinized and passaged 1:10. Thirty-two (32) female CB-17 SCID mice (Charles River Labs strain code 236), aged 5 to 6 weeks were used with a mean pre-treatment body weight of 16.3 grams. Mice were divided into four (4) groups of eight (8) prior to the initiation of treatment based on tumor volume. On the day of implantation, cells were washed in PBS, trypsinized and resuspended in complete media to a density of 2×10^7 cells/mL prior to being mixed with an equal volume of Matrigel. This mixture was then inoculated subcutaneously into mice in a volume of 0.1 mL using a 23G needle.
Animal weights and condition were recorded daily, and tumors were measured on Mondays, Wednesdays and Fridays with micro-calipers, and tumor volume was calculated as (length×width×width)/2.
Animals with weight loss of more than 20% of their starting weight were euthanized. Mice with weight loss of more than 15% of their starting weight were not treated again until weight loss recovered to less than 5% of their starting weight. Any animals with a tumor volume of more than 1500 mm^3 were euthanized.
Dosing solutions were prepared fresh on each day of dosing. Compound 2 was supplied as a lyophilized powder containing 69.61% Compound 2 with the balance made up of Pluronic F-68 and PVP K29/32. This was prepared by dissolving the lyophilized powder in sterile water. Cisplatin was dissolved at 5 mg/mL in DMSO and diluted 1:10 in sterile water for injection. All test articles were administered in a volume of 0.1 mL/10 g body weight.
Statistical differences between treatment groups were determined using Mann-Whitney Rank Sum or ANOVA tests with a critical value of 0.05.

SMILES | nuclear localization of IκB, Nrf2, HMGB1, FoxP3, FOXO1a, RxRα, PPARγ and NFκB [1] | COX-2 protein expression (COX-2) | anti-psoriatic activity (PMA-induced psoriasis) | left and right ear disease activity index (DAI) (PMA-induced psoriasis) | left and right ear thickness (PMA-induced psoriasis) | tumor growth versus vehicle control group (mean AUC of tumor volume, one-way ANOVA) (A549 xenograft tumors; Compound 2 5 or 10 mg/kg PO, cisplatin 5 mg/kg IP) | mean tumor volume (A549 xenograft tumors; Day 1, 5 mg/kg PO MWF) | mean tumor volume (A549 xenograft tumors; Day 1, 10 mg/kg PO MWF) | mean tumor volume (A549 xenograft tumors; Day 29, 5 mg/kg PO MWF) | mean tumor volume (A549 xenograft tumors; Day 29, 10 mg/kg PO MWF)
CC(C)(C)C(=O)NNC(=O)/C=C\n1cnc(-c2cc(C(F)(F)F)cc(C(F)(F)F)c2)n1 [Compound 1, (Z)-3-(3-(3,5-bis(trifluoromethyl)phenyl)-1H-1,2,4-triazol-1-yl)-N′-pivaloylacrylohydrazide] | nuclear localization of the above cargos, even in the presence of TNFα | decreased the amount of COX-2 protein in the presence of TNFα; also recorded: does reduce the amount of TNFα induced expression of COX-2 protein; also recorded: inhibits TNFα-induced COX-2 protein expression |  |  |  |  |  |  |  | 
O=C(/C=C\n1cnc(-c2cc(C(F)(F)F)cc(C(F)(F)F)c2)n1)NNC(=O)CN1CCOCC1 [Compound 2, (Z)-3-(3-(3,5-bis(trifluoromethyl)phenyl)-1H-1,2,4-triazol-1-yl)-N′-(2-morpholinoacetyl)acrylohydrazide] |  |  | statistically significant anti-psoriatic activity | prominent reduction in PMA-induced increases | prominent reduction in PMA-induced increases | antitumor effect at both 5 mg/kg and 10 mg/kg doses in a dose dependent manner | 101 mm^3 | 101 mm^3 | 1231 mm^3 | 686 mm^3

Source: patent publication US10617677B2, “Nuclear transport modulators and uses thereof” (Biogen MA Inc., priority 2012, dated 2020)
